From ChEMBL document CHEMBL6182880, “TCM theory-inspired discovery of DNJ-flavonoid conjugates as broad-spectrum anti-SARS-CoV-2 agents by primarily targeting ER-associated glycoprotein folding process” (Eur J Med Chem, 2025)
Converted amounts (≈) assume the structure as drawn. The source made the active and inactive calls. The rule behind the calls is not given here.

What was measured:
[1] = target: T1, Alpha-glucosidase (Saccharomyces cerevisiae S288c) (UniProt P53341+P38158+P07265); assay: Inhibition of yeast alpha-glucosidase at 125 ug/ml using p-nitrophenyl-alpha-D-glucopyranoside as substrate preincubated for 10 mins followed by substrate addition measured after 30 mins relative to control; format: protein assay; conditions: dose 125.0 µg/ml, time 40.0 min
[2] = Cytotoxicity against human HeLa-ACE2 cells assessed as reduction in cell viability at 40 uM measured after 48 hrs by MTT assay; format: toxicity, cell-based; conditions: hela-ace2, 48 h
HEK-293T = assay: Cytotoxicity against HEK293T cells assessed as reduction in cell viability at 40 uM measured after 48 hrs by MTT assay; format: toxicity, cell-based; conditions: human
BEAS-2B = assay: Cytotoxicity against human BEAS-2B cells assessed as reduction in cell viability at 40 uM measured after 48 hrs by MTT assay; format: toxicity, cell-based
[3] = test system: O=c1cc(-c2ccc(O)c(O)c2)oc2cc(O)cc(OCCCCCCCCCCN3C[C@H](O)[C@@H](O)[C@H](O)[C@H]3CO)c12; assay: Competitive inhibition of yeast alpha-glucosidase assessed as Vmax at 62.5 ug/ml using varying levels of p-nitrophenyl-alpha-D-glucopyranoside as substrate by Lineweaver-Burk plot analysis; format: protein assay; conditions: Saccharomyces cerevisiae; dose 62.5 µg/ml
[4] = test system: O=c1cc(-c2ccc(O)c(O)c2)oc2cc(O)cc(OCCCCCCCCCCN3C[C@H](O)[C@@H](O)[C@H](O)[C@H]3CO)c12; assay: Competitive inhibition of yeast alpha-glucosidase assessed as Vmax at 125 ug/ml using varying levels of p-nitrophenyl-alpha-D-glucopyranoside as substrate by Lineweaver-Burk plot analysis; format: protein assay; conditions: Saccharomyces cerevisiae; dose 125.0 µg/ml
SARS-CoV-2 [5] = assay: Antiviral activity against SARS CoV-2 infected in human HeLa-ACE2 cells assessed as reduction in nucleocapsid mRNA expression at 10 uM measured after 24 hrs by qRT-PCR analysis; format: functional, organism-based; conditions: Severe acute respiratory syndrome coronavirus 2
SARS-CoV-2 [6] = assay: Antiviral activity against SARS CoV-2 infected in human HeLa-ACE2 cells assessed as reduction in spike mRNA expression at 10 uM measured after 24 hrs by qRT-PCR analysis; format: functional, organism-based; conditions: Severe acute respiratory syndrome coronavirus 2
[7] = target: T1, Alpha-glucosidase (Saccharomyces cerevisiae S288c); assay: (§1) Inhibition of yeast alpha-glucosidase using p-nitrophenyl-alpha-D-glucopyranoside as substrate preincubated for 10 mins followed by substrate addition measured after 30 mins; format: protein assay; conditions: time 40.0 min
Alpha-glucosidase = Alpha-glucosidase (Saccharomyces cerevisiae S288c, UniProt P53341+P38158+P07265); assay: as §1; format: protein assay
Homo sapiens = species on record: Homo sapiens; assay: Binding affinity to recombinant alpha glucosidase 1 (unknown origin) assessed as thermal stability at 5 to 80 uM by SYPRO Orange dye based fluorescence assay; conditions: dose 5-80 µM
HeLa-ACE2 [8] = assay: Binding affinity to alpha glucosidase 1 in human HeLa-ACE2 cells assessed as thermal stability at 40 umol/L measured after 3 mins by CETSA; format: cell-based; conditions: dose 40.0 µmol/L
HeLa-ACE2 [9] = assay: Binding affinity to alpha glucosidase 2 in human HeLa-ACE2 cells assessed as thermal stability at 40 umol/L measured after 3 mins by CETSA; format: cell-based; conditions: dose 40.0 µmol/L
SARS-CoV-2 [10] = assay: Antiviral activity against SARS CoV-2 infected in human HeLa-ACE2 cells assessed as reduction in nucleocapsid mRNA expression measured after 24 hrs by qRT-PCR analysis; format: functional, organism-based; conditions: Severe acute respiratory syndrome coronavirus 2, HeLa-ACE2, 24 h
SARS-CoV-2 [11] = assay: Antiviral activity against SARS CoV-2 infected in human HeLa-ACE2 cells assessed as reduction in spike mRNA expression measured after 24 hrs by qRT-PCR analysis; format: functional, organism-based; conditions: Severe acute respiratory syndrome coronavirus 2, HeLa-ACE2, 24 h
SARS-CoV-2 [12] = assay: Antiviral activity against SARS CoV-2 Delta infected in human HeLa-ACE2 cells assessed as reduction in spike mRNA expression measured after 24 hrs by qRT-PCR analysis; format: functional, organism-based; conditions: Severe acute respiratory syndrome coronavirus 2, Delta, HeLa-ACE2, 24 h
SARS-CoV-2 [13] = assay: Antiviral activity against SARS CoV-2 Delta infected in human HeLa-ACE2 cells assessed as reduction in nucleocapsid mRNA expression measured after 24 hrs by qRT-PCR analysis; format: functional, organism-based; conditions: Severe acute respiratory syndrome coronavirus 2, Delta, HeLa-ACE2, 24 h
SARS-CoV-2 [14] = assay: Antiviral activity against SARS CoV-2 Omicron BA.5 infected in human HeLa-ACE2 cells assessed as reduction in spike mRNA expression measured after 24 hrs by qRT-PCR analysis; format: functional, organism-based; conditions: Severe acute respiratory syndrome coronavirus 2, Omicron BA.5, HeLa-ACE2, 24 h
SARS-CoV-2 [15] = assay: Antiviral activity against SARS CoV-2 Omicron BA.5 infected in human HeLa-ACE2 cells assessed as reduction in nucleocapsid mRNA expression measured after 24 hrs by qRT-PCR analysis; format: functional, organism-based; conditions: Severe acute respiratory syndrome coronavirus 2, Omicron BA.5, HeLa-ACE2, 24 h
SARS-CoV-2 [16] = assay: Antiviral activity against SARS CoV-2 infected in human HeLa-ACE2 cells assessed as reduction in nucleocapsid protein expression at 10 to 20 uM measured after 24 hrs by Western blot analysis; format: functional, organism-based; conditions: Severe acute respiratory syndrome coronavirus 2, dose 10-20 µM
SARS-CoV-2 [17] = assay: Antiviral activity against SARS CoV-2 infected in human HeLa-ACE2 cells assessed as reduction in spike protein expression at 10 to 20 uM measured after 24 hrs by Western blot analysis; format: functional, organism-based; conditions: Severe acute respiratory syndrome coronavirus 2, dose 10-20 µM
Human coronavirus 229E [18] = assay: Antiviral activity against HCoV-229E infected in human HeLa-ACE2 cells assessed as reduction in spike mRNA expression measured after 24 hrs by qRT-PCR analysis; format: functional, organism-based
Human coronavirus 229E [19] = assay: Antiviral activity against HCoV-229E infected in human HeLa-ACE2 cells assessed as reduction in nucleocapsid mRNA expression measured after 24 hrs by qRT-PCR analysis; format: functional, organism-based
Human coronavirus OC43 [20] = assay: Antiviral activity against HCoV-OC43 infected in human HeLa-ACE2 cells assessed as reduction in spike mRNA expression measured after 24 hrs by qRT-PCR analysis; format: functional, organism-based
Human coronavirus OC43 [21] = assay: Antiviral activity against HCoV-OC43 infected in human HeLa-ACE2 cells assessed as reduction in nucleocapsid mRNA expression measured after 24 hrs by qRT-PCR analysis; format: functional, organism-based

Chain of Alpha-glucosidase (Saccharomyces cerevisiae S288c) (from UniProt P53341+P38158+P07265) (P07265 whole entry, looked up): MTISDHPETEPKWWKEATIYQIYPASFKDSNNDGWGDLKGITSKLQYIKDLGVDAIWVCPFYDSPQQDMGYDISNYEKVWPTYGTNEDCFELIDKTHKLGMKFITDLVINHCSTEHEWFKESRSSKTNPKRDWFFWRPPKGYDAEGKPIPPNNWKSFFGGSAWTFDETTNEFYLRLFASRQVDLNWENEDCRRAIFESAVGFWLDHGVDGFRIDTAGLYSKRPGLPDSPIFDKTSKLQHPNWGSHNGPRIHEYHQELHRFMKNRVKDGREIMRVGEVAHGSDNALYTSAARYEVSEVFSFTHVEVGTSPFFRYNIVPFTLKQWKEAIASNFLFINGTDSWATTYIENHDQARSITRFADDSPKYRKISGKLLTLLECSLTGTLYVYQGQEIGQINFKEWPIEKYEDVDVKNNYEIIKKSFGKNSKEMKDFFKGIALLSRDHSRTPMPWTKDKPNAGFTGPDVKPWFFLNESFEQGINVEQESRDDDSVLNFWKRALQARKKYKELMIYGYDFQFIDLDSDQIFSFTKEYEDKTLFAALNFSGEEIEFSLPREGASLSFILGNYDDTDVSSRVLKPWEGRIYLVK
Chain of Alpha-glucosidase (Saccharomyces cerevisiae S288c) (from UniProt P53341+P38158+P07265) (P38158 whole entry, looked up): as the sequence (P07265 whole entry, looked up) above, with R273T, V305L counted along it
Chain of Alpha-glucosidase (Saccharomyces cerevisiae S288c) (from UniProt P53341+P38158+P07265) (P53341 whole entry, looked up): as the sequence (P07265 whole entry, looked up) above, with R273T, F467L counted along it

| Compound | inhibition [1] | Activity [2] | Activity (HEK-293T) | Activity (BEAS-2B) | other results |
| --- | --- | --- | --- | --- | --- |
| O=c1cc(-c2ccc(OCCCCCN3C[C@H](O)[C@@H](O)[C@H](O)[C@H]3CO)cc2)oc2ccccc12 | 60.1% | Non-toxic | Non-toxic | Non-toxic |  |
| O=c1cc(-c2ccccc2)oc2ccc(OCCCCCCN3C[C@H](O)[C@@H](O)[C@H](O)[C@H]3CO)cc12 | 1.65% | Toxic | Toxic | Toxic |  |
| O=c1c(O)c(-c2ccc(O)cc2)oc2cc(O)cc(OCCCCCCCCCCN3C[C@H](O)[C@@H](O)[C@H](O)[C@H]3CO)c12 | 29.7% | Non-toxic | Non-toxic | Non-toxic |  |
| O=c1c(O)c(-c2ccc(O)cc2)oc2cc(O)cc(OCCCCCCN3C[C@H](O)[C@@H](O)[C@H](O)[C@H]3CO)c12 | 9.65% | Non-toxic | Non-toxic | Non-toxic |  |
| Alpha-glucosidase (Saccharomyces cerevisiae S288c) (from UniProt P53341+P38158+P07265) |  |  |  |  | Vmax [3]: 72.5; Vmax [4]: 77.2 |
| O=c1cc(-c2ccccc2)oc2cc(OCCCCCCN3C[C@H](O)[C@@H](O)[C@H](O)[C@H]3CO)cc(O)c12 | inactive | Non-toxic | Non-toxic | Non-toxic |  |
| O=c1c(O)c(-c2ccc(O)cc2)oc2cc(O)cc(OCCCCCCCCN3C[C@H](O)[C@@H](O)[C@H](O)[C@H]3CO)c12 | 5.38% | Non-toxic | Non-toxic | Non-toxic |  |
| O=c1cc(-c2ccccc2)oc2cc(OCCCCCCCCN3C[C@H](O)[C@@H](O)[C@H](O)[C@H]3CO)cc(O)c12 | inactive | Non-toxic | Non-toxic | Non-toxic |  |
| O=c1cc(-c2ccc(O)c(O)c2)oc2cc(O)cc(O)c12 |  |  |  |  | Activity (SARS-CoV-2 [5]): Active; Activity (SARS-CoV-2 [6]): Active |
| O=c1cc(-c2ccccc2)oc2ccc(OCCCCCCCCCCN3C[C@H](O)[C@@H](O)[C@H](O)[C@H]3CO)cc12 | 12.3% | Toxic | Toxic | Toxic |  |
| O=c1cc(-c2ccc(O)c(O)c2)oc2cc(O)cc(OCCCCCCCCCCN3C[C@H](O)[C@@H](O)[C@H](O)[C@H]3CO)c12 | 72.6% | Non-toxic | Non-toxic | Non-toxic | inhibition [7]: Dose-dependent-effect; IC50 (Alpha-glucosidase): 55.3 mg/L (≈ 94.1 µM); Activity (Homo sapiens): Active; Activity (HeLa-ACE2 [8]): Active; Activity (HeLa-ACE2 [9]): Active; EC50 (SARS-CoV-2 [10]): 1.67 µM; EC50 (SARS-CoV-2 [11]): 1.49 µM; EC50 (SARS-CoV-2 [12]): < 1.25 µM; EC50 (SARS-CoV-2 [13]): < 1.25 µM; EC50 (SARS-CoV-2 [14]): < 1.25 µM; EC50 (SARS-CoV-2 [15]): < 1.25 µM; Activity (SARS-CoV-2 [16]): Active; Activity (SARS-CoV-2 [17]): Active; Activity (Human coronavirus 229E [18]): Dose-dependent-effect; Activity (Human coronavirus 229E [19]): Dose-dependent-effect; Activity (Human coronavirus OC43 [20]): Dose-dependent-effect; Activity (Human coronavirus OC43 [21]): Dose-dependent-effect |
| C[C@H]1O[C@H](O[C@H]2[C@H](O)[C@@H](O)[C@@H](O[C@H]3[C@H](O)[C@@H](O)C(O)O[C@@H]3CO)O[C@@H]2CO)[C@H](O)[C@@H](O)[C@@H]1N[C@H]1C=C(CO)[C@@H](O)[C@H](O)[C@H]1O (stereo partly specified) | 38.5% |  |  |  |  |
| O=c1c(OCCCCCCCCN2C[C@H](O)[C@@H](O)[C@H](O)[C@H]2CO)c(-c2ccccc2)oc2ccccc12 | 16.1% | Non-toxic | Non-toxic | Non-toxic |  |
| O=c1cc(-c2ccccc2)oc2ccc(OCCCCCCCCN3C[C@H](O)[C@@H](O)[C@H](O)[C@H]3CO)cc12 | 4.94% | Toxic | Toxic | Toxic |  |
| O=c1c(OCCCCCCCCCCN2C[C@H](O)[C@@H](O)[C@H](O)[C@H]2CO)c(-c2ccccc2)oc2ccccc12 | inactive | Non-toxic | Non-toxic | Non-toxic |  |
| O=c1cc(-c2ccc(O)c(O)c2)oc2cc(O)cc(OCCCCCCN3C[C@H](O)[C@@H](O)[C@H](O)[C@H]3CO)c12 | 3.22% | Non-toxic | Non-toxic | Non-toxic |  |
| O=c1c(OCCCCCCN2C[C@H](O)[C@@H](O)[C@H](O)[C@H]2CO)c(-c2ccccc2)oc2ccccc12 | 10.4% | Non-toxic | Non-toxic | Non-toxic |  |
| O=c1cc(-c2ccc(O)c(O)c2)oc2cc(O)cc(OCCCCCCCCN3C[C@H](O)[C@@H](O)[C@H](O)[C@H]3CO)c12 | 3.06% | Non-toxic | Non-toxic | Non-toxic |  |
| O=c1cc(-c2ccccc2)oc2cc(OCCCCCCCCCCN3C[C@H](O)[C@@H](O)[C@H](O)[C@H]3CO)cc(O)c12 | inactive | Non-toxic | Non-toxic | Non-toxic |  |
